A value given as a limit tells only on which side of the number the result lay.

In this test the target is JAK1 (recombinant purified GST-tagged catalytic domain) (Homo sapiens (Human), UniProt P23458). The test can be described thus: Jak Biochemical HTRF Assay (JAK1). The settings on record: [ATP] 31.8 μM. Here is the method:
Jak Biochemical HTRF Assay Protocol
The ability of compounds to inhibit the activity of JAK1, JAK2, JAK3, and Tyk2 was measured using a recombinant purified GST-tagged catalytic domain for each enzyme (Invitrogen JAK1 #M4290, JAK2 #M4290, JAK3 #M4290, Tyk2 #M4290) in an HTRF format biochemical assay. The reactions employed a common peptide substrate, LCB-[…]-NH2 (in-house). The basic assay protocol is as follows: First, 250 nL of diluted compounds in DMSO were dispensed into the wells of a dry 384-well Black plate (Greiner #781076) using a Labcyte Echo 555 acoustic dispenser. Subsequent reagent additions employed an Agilent Bravo. […] After equilibration, 2 μL of 10×ATP in 1× assay buffer was added to initiate the kinase reaction and the plates were shaken and then incubated at room temperature for 120 minutes. At the end of the incubation, 20 μL of 2× stop buffer (streptavidin-Dylight 650 (Thermo #84547B/100 mL), Eu-tagged pY20 antibody (Perkin Elmer #AD0067), EDTA, HEPES, and Triton) was added to quench the reaction. Plates were shaken and centrifuged and then incubated 60 minutes at room temperature and then read on a Perkin Elmer Envision (λex=337 nm, λem=665 and 615 nm, TRF delay time=20 μs). HTRF signal=10,000*665 nm reading/615 nm reading. After normalization to untreated controls, the percent inhibition of the HTRF signal at each compound concentration was calculated. The plot of percent inhibition versus the log of compound concentration was fit with a 4-parameter dose response equation to calculate IC50 values.
Final reaction conditions were:
Examples of the instant invention were evaluated in JAK1 and JAK2 in vitro binding assays as described above. The following table tabulates the JAK1 IC50 values and JAK2 IC50 values disclosed for the instant invention.

Chain of JAK1 (recombinant purified GST-tagged catalytic domain) (P23458 875-1153): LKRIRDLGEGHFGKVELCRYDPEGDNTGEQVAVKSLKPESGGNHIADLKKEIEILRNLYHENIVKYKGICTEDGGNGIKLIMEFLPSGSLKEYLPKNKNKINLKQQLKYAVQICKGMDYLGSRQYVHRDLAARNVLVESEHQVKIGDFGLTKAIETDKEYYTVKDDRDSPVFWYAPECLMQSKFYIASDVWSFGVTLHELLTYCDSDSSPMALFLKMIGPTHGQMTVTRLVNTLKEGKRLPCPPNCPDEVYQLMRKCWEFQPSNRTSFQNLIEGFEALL

Regarding `CC1(C)Cc2cc(Nc3nn([C@]4(CC#N)CCCOC4)c4cc[nH]c(=O)c34)ccc2C1(O)C(F)(F)F` (single isomer, unassigned) [Example 5-119, 2-((S)-3-(3-(((S or R)-1-hydroxy-2,2-dimethyl-1-(trifluoromethyl)-2,3-dihydro-1H-inden-5-yl)amino)-4-oxo-4,5-dihydro-1H-pyrazolo[4,3-c]pyridin-1-yl)tetrahydro-2H-pyran-3-yl)acetonitrile], the IC50 was 0.15 nM.
In the case of `CCOC(=O)C(C)(C)N(C)S(=O)(=O)c1ccc(Nc2nn(C3(CC#N)CCCC3)c3cc[nH]c(=O)c23)cc1` [Example 5-139, ethyl 2-(4-((1-(1-(cyanomethyl)cyclopentyl)-4-oxo-4,5-dihydro-1H-pyrazolo[4,3-c]pyridin-3-yl)amino)-N-methylphenylsulfonamido)-2-methylpropanoate] it was 0.76 nM; in that of `CN(C)S(=O)(=O)c1ccc(Nc2nn(C3(CC#N)CCN(Cc4cccc5[nH]ccc45)CC3)c3cc[nH]c(=O)c23)cc1` [Example 8-16, 4-({1-[4-(cyanomethyl)-1-(1H-indol-4-ylmethyl)piperidin-4-yl]-4-oxo-4,5-dihydro-1H-pyrazolo[4,3-c]pyridin-3-yl}amino)-N,N-dimethylbenzenesulfonamide], 1.54 nM.
`CC(OC(=O)N1CCC(CC#N)(n2nc(Nc3ccc(S(=O)(=O)N(C)C)cc3)c3c(=O)[nH]ccc32)CC1)C(F)(F)F` (stereo not drawn) [Example 11-8, 1,1,1-trifluoropropan-2-yl 4-(cyanomethyl)-4-(3-((4-(N,N-dimethylsulfamoyl)phenyl)amino)-4-oxo-4,5-dihydro-1H-pyrazolo[4,3-c]pyridin-1-yl)piperidine-1-carboxylate]: the concentration for half-maximal inhibition (IC50) was 0.18 nM.
In the case of `CCC(=O)N1CCC(CC#N)(n2nc(Nc3ccc(S(=O)(=O)N(C)C)cc3)c3c(=O)[nH]ccc32)CC1` [Example 9-1, 4-({1-[4-(cyanomethyl)-1-propanoylpiperidin-4-yl]-4-oxo-4,5-dihydro-1H-pyrazolo[4,3-c]pyridin-3-yl}amino)-N,N-dimethylbenzenesulfonamide] it was 0.11 nM; in that of `CN(C)S(=O)(=O)c1ccc(Nc2nn(C3(CC#N)CCN(Cc4ccc(C#N)cc4)CC3)c3cc[nH]c(=O)c23)cc1` [Example 8-5], 0.2 nM.
Next, `N#CC[C@@]1(n2nc(Nc3ccc4c(c3)CN(C3CCNCC3)S4(=O)=O)c3c(=O)[nH]ccc32)CCOC[C@@H]1F` (single isomer, unassigned) [Example 5-272, 2-((3R,4R or 3S,4S)-4-(3-((1,1-dioxido-2-(piperidin-4-yl)-2,3-dihydrobenzo [d]isothiazol-5-yl)amino)-4-oxo-4,5-dihydro-1H-pyrazolo[4,3-c]pyridin-1-yl)-3-fluorotetrahydro-2H-pyran-4-yl)acetonitrile]: 0.06 nM; `CC(C)S(=N)(=O)c1ccc(Nc2nn([C@]3(CC#N)CC[C@@H](C(=O)OC(C)(C)C)OC3)c3cc[nH]c(=O)c23)cc1` (single isomer, unassigned) [Example 5-230, (2S,5S)-tert-butyl 5-(cyanomethyl)-5-(4-oxo-3-((4-(propan-2-yl-(S or R)-sulfonimidoyl)phenyl)amino)-4,5-dihydro-1H-pyrazolo[4,3-c]pyridin-1-yl)tetrahydro-2H-pyran-2-carboxylate]: 0.12 nM.
Take `Cc1cc(Nc2nn([C@]3(CC#N)CC[C@@H](C(=O)OC(C)(C)C)OC3)c3cc[nH]c(=O)c23)ccc1C(=O)N1CCSCC1` [Example 20-6, (2S,5S)-tert-butyl 5-(cyanomethyl)-5-(3-((3-methyl-4-(thiomorpholine-4-carbonyl)phenyl)amino)-4-oxo-4,5-dihydro-1H-pyrazolo[4,3-c]pyridin-1-yl)tetrahydro-2H-pyran-2-carboxylate]: the half-maximal inhibitory concentration (IC50) was 0.13 nM.
Turning to `CC(C)NS(=O)(=O)c1ccc(Nc2nn(C3(CC#N)CCCC3)c3cc[nH]c(=O)c23)cc1` [Example 5-130, 4-((1-(1-(cyanomethyl)cyclopentyl)-4-oxo-4,5-dihydro-1H-pyrazolo[4,3-c]pyridin-3-yl)amino)-N-isopropylbenzene-sulfonamide], the half-inhibitory concentration (IC50) amounted to 0.5 nM.
In the case of `COC(=O)c1ccc(Nc2nn(C3(CC#N)CN(C(=O)OC(C)(C)C)C3)c3cc[nH]c(=O)c23)cc1` [Example 4-2, tert-butyl 3-(cyanomethyl)-3-(3((4(methoxycarbonyl)phenyl)amino)-4-oxo-4,5-dihydro-1H-pyrazolo[4,3-c]pyridin-1-yl)azetidine-1-carboxylate] it was 2.47 nM; in that of `Cc1cc(Nc2nn([C@]3(CC#N)CC[C@@H](C(=O)OC(C)(C)C)OC3)c3cc[nH]c(=O)c23)ccc1C(=O)N1CCSC(C)C1` (single isomer, unassigned) [Example 5-159, (2S,5S)-tert-butyl 5-(cyanomethyl)-5-(3-((3-methyl-4-((S or R)-2-methylthiomorpholine-4-carbonyl)phenyl)amino)-4-oxo-4,5-dihydro-1H-pyrazolo[4,3-c]pyridin-1-yl)tetrahydro-2H-pyran-2-carboxylate], 0.24 nM; in that of `CN(C)S(=O)(=O)c1ccc(Nc2nn([C@@]3(CC#N)CCCC[C@H]3F)c3cc[nH]c(=O)c23)cc1` [Example 5-84], under 0.02 nM.
With `C[C@H]1CN(C(=O)OC(C)(C)C)CC[C@]1(CC#N)n1nc(Nc2ccc(S(C)(=O)=O)cc2)c2c(=O)[nH]ccc21` (racemic) [Example 5-10, tert-butyl (3R,4S and 3S,4R)-4-(cyanomethyl)-3-methyl-4-(3-{[4-(methylsulfonyl)phenyl]amino}-4-oxo-4,5-dihydro-1H-pyrazolo[4,3-c]pyridin-1-yl)piperidine-1-carboxylate], the IC50 is 0.23 nM.
With `CC(C)(C)OC(=O)[C@@H]1CC[C@@](CC#N)(n2nc(Nc3ccc(C(O)(C(C)(C)C)C(F)(F)F)cc3)c3c(=O)[nH]ccc32)CO1` (single isomer, unassigned) [Example 5-167, (2S,5S)-tert-butyl 5-(cyanomethyl)-5-(4-oxo-3-((4-((S or R)-1,1,1-trifluoro-2-hydroxy-3,3-dimethylbutan-2-yl)phenyl)amino)-4,5-dihydro-1H-pyrazolo[4,3-c]pyridin-1-yl)tetrahydro-2H-pyran-2-carboxylate], the 50% inhibitory concentration (IC50) amounted to 0.83 nM.
For `CC(C)(C)OC(=O)[C@@H]1CC[C@@](CC#N)(n2nc(Nc3ccc(Cn4ccnn4)cc3)c3c(=O)[nH]ccc32)CO1` [Example 5-96, (2S,5S)-tert-butyl 5-(3-((4-((1H-1,2,3-triazol-1-yl)methyl)phenyl)amino)-4-oxo-4,5-dihydro-1H-pyrazolo[4,3-c]pyridin-1-yl)-5-(cyanomethyl) tetrahydro-2H-pyran-2-carboxylate], the concentration for half-maximal inhibition (IC50) came out at 0.07 nM.
Next, `CC(C)(C)N1Cc2cc(Nc3nn(C4(CC#N)CCCC4)c4cc[nH]c(=O)c34)ccc2S1(=O)=O` [Example 5-121, 2-(1-(3-((2-(tert-butyl)-1,1-dioxido-2,3-dihydrobenzo[d]isothiazol-5-yl)amino)-4-oxo-4,5-dihydro-1H-pyrazolo[4,3-c]pyridin-1-yl)cyclopentyl)acetonitrile]: 0.04 nM; `Cc1cc(Nc2nn([C@]3(CC#N)CC[C@@H](C(=O)OC(C)(C)C)OC3)c3cc[nH]c(=O)c23)ccc1C(=O)N1CCSC(C)C1` (single isomer, unassigned) [Example 5-158, (2S,5S)-tert-butyl 5-(cyanomethyl)-5-(3-((3-methyl-4-((S or R)-2-methylthiomorpholine-4-carbonyl)phenyl)amino)-4-oxo-4,5-dihydro-1H-pyrazolo[4,3-c]pyridin-1-yl)tetrahydro-2H-pyran-2-carboxylate]: 0.28 nM; `CC(C)S(=N)(=O)c1ccc(Nc2nn([C@]3(CC#N)CC[C@@H](C(=O)OC(C)(C)C)OC3)c3cc[nH]c(=O)c23)cc1` (single isomer, unassigned) [Example 5-231, (2S,5S)-tert-butyl 5-(cyanomethyl)-5-(4-oxo-3-((4-(propan-2-yl-(S or R)-sulfonimidoyl)phenyl)amino)-4,5-dihydro-1H-pyrazolo[4,3-c]pyridin-1-yl)tetrahydro-2H-pyran-2-carboxylate]: 0.12 nM.
In the case of `CC(C)(C)OC(=O)[C@@H]1CC[C@@](CC#N)(n2nc(Nc3ccc4c(c3)CN(C(C)(C)C)S4(=O)=O)c3c(=O)[nH]ccc32)CO1` [Example 5-41, (2S,5S)-tert-butyl 5-(3-((2-(tert-butyl)-1,1-dioxido-2,3-dihydrobenzo [d]isothiazol-5-yl)amino)-4-oxo-4,5-dihydro-1H-pyrazolo[4,3-c]pyridin-1-yl)-5-(cyanomethyl) tetrahydro-2H-pyran-2-carboxylate] it was 0.09 nM; in that of `CN(C)S(=O)(=O)c1ccc(Nc2nn([C@]3(CC#N)CC[C@@H](N4CC(F)C4)CC3)c3cc[nH]c(=O)c23)cc1` [Example 18-29, Trans 4-((1-(1-(cyanomethyl)-4-(3-fluoroazetidin-1-yl)cyclohexyl)-4-oxo-4,5-dihydro-1H-pyrazolo[4,3-c]pyridin-3-yl)amino)-N,N-dimethylbenzenesulfonamide], 0.1 nM.

(Values after patent US9957264B2 (Merck Sharp & Dohme Corp., priority 2013, dated 2018).)
